In patent US8410150B2, “Inhibitors of carnitine palmitoyltransferase and treating cancer” (University Health Network, priority 2007, dated 2013):

Target: T1, human CPT1A (Homo sapiens, UniProt P50416)
T1 construct: made in house; host or cells: Saccharomyces cerevisiae (pESC-trp) or cultured mammalian cells (pCDNA3.1); mitochondrial extract
T1 sequence (P50416 1-773): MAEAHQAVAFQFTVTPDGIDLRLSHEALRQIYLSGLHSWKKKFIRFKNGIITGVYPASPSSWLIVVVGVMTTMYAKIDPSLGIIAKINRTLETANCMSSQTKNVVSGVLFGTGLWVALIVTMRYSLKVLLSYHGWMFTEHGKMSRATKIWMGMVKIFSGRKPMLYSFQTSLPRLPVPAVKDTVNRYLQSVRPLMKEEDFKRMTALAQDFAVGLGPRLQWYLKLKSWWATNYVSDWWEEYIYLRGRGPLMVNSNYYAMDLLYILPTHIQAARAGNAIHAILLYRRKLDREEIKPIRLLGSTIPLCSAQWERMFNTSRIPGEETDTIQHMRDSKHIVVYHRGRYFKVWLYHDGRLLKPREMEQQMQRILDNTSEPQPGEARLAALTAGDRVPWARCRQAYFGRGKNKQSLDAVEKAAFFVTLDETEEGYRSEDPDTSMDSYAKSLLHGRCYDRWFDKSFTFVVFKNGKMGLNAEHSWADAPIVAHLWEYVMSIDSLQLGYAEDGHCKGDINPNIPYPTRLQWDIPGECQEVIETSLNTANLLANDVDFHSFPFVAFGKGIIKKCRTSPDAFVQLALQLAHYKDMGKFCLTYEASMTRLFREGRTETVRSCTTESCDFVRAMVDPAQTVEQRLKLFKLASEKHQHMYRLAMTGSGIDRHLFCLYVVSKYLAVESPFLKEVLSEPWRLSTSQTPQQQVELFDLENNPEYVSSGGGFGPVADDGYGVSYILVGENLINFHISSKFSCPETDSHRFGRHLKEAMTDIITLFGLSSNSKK
Test: Human CPT1A LC/MS assay
Assay type: biochemical
Details: human CPT1A LC/MS assay, dose response format
How it was run: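 Mitochondrial extracts (1.6 μg protein) expressing human CPT1A, preincubated 10 min with compound in 20% DMSO, then reacted 10 min at room temperature with 20 μM palmitoyl-CoA, 50 μM L-carnitine (pH 7.5). Palmitoyl carnitine was quantified by LC/MS against a myristoyl carnitine standard; 16-point, 2-fold titrations gave dose response.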

Structure (SMILES): CCCCCCCCCCCCc1ccc(NS(=O)(=O)N[C@H](CC(=O)O)C[N+](C)(C)C)cc1 [Example S89, (R)-3-(N-(4-dodecylphenyl)sulfamoylamino)-4-(trimethylammonio)-butanoate]
- IC50: ≤ 1 µM

Structure (SMILES): CCCCCCCCCCOc1cccc(C(=O)N[C@H](CC(=O)[O-])C[N+](C)(C)C)c1 [Example S67, (R)-3-(3-(decyloxy)benzamido)-4-(trimethylammonio)butanoate]
- IC50: 10 to 100 µM

Structure (SMILES): CCCCCCCCc1ccc(NC(=O)N[C@H](CC(=O)[O-])C[N+](C)(C)C)cc1 [Example S7, (R)-3-(3-(4-octylphenyl)ureido)-4-(trimethylammonio)butanoate]
- IC50: 1 to 10 µM

Structure (SMILES): CCCCCCCCCCc1ccc(C(=O)N[C@H](CC(=O)[O-])C[N+](C)(C)C)cc1 [Example S66, (R)-3-(4-decylbenzamido)-4-(trimethylammonio)butanoate]
- IC50: ≤ 1 µM

Structure (SMILES): CCCCCCCOc1ccc(NC(=O)N[C@H](CC(=O)[O-])C[N+](C)(C)C)cc1 [Example S10, (R)-3-(3-(4-(heptyloxy)phenyl)ureido)-4-(trimethylammonio)butanoate]
- IC50: 10 to 100 µM

Structure (SMILES): CCCCCCCCCCOc1ccc(C(=O)N[C@H](CC(=O)O)C[N+](C)(C)C)cc1 [Example S63, (R)-3-(4-(decyloxy)benzamido)-4-(trimethylammonio)butanoate 2,2,2-trifluoroacetate]
- IC50: ≤ 1 µM

Structure (SMILES): CCCCCCCCCCc1ccc(S(=O)(=O)N[C@H](CC(=O)O)C[N+](C)(C)C)cc1 [Example S75, (R)-3-carboxy-2-(4-decylphenylsulfonamido)-N,N,N-trimethylpropan-1-aminium 2,2,2-trifluoroacetate]
- IC50: 1 to 10 µM

Structure (SMILES): CCCCCCCCCCCCCCc1ccc(NS(=O)(=O)N[C@H](CC(=O)O)C[N+](C)(C)C)cc1 [Example S90, (R)-3-(N-(4-tetradecylphenyl)sulfamoylamino)-4-(trimethylammonio)-butanoate]
- IC50: ≤ 1 µM
